Read-outs that look alike come from different tables or passages of the source.
How the values were obtained:
[1] = target: T1, full-length human GCN2 enzyme (Homo sapiens, UniProt Q9P2K8); assay: GCN2 enzyme inhibition, LanthaScreen TR-FRET Kinase Activity assay (10 μM and 300 μM ATP); format: biochemical; details: mean of replicate assays
T1 construct: purchased Carna Bioscience
Method: Biological and Pharmacokinetic Testing (a) GCN2 Enzyme Inhibition (10 μM and 300 μM Assays) Assay Protocol Overview:
The inhibitory activity of the Example compounds towards GCN2 enzyme was measured according to the description below, using a LanthaScreen TR-FRET (Time Resolved Fluorescence Resonance Energy Transfer) Kinase Activity assay distributed by ThermoFisher Scientific.
The full-length human GCN2 enzyme (UniProt accession number Q9P2K8) was used for all experiments (Carna Bioscience). The TR-FRET pair was composed of GFP-eIF2α and LanthaScreen Terbium-labeled anti-peIF2α (pSer52) Antibody.
Each example compound was dissolved in DMSO (0.15 mM) and dispensed in a 384-well plate by a D300 dispenser (Tecan) to a final concentration range 3000-0.13 nM using the logarithmic dilution mode in 2 replicates. Full inhibition (3000 nM commercial reference inhibitor) and DMSO vehicle control wells were also included on the same plate. All volumes were normalized to the final DMSO concentration of 2% of the reaction volume. Next, 5 μL of H2O was added to each well of the plate.
The enzyme mixture was prepared to obtain the following concentrations: • GCN2—30 nM • unloaded tRNA—0.3 nM • HEPES (pH=7.0)—100 mM • MgCl2—20 mM; MnCl2—10 mM
The mixture was applied by adding 5 μL to each well of the plate. The enzyme and the tested compound were then incubated at room temperature for 20 min while shaking at 450 rpm.
The substrate mixture was prepared to obtain the following concentrations: • GFP-eIF2α—240 nM • ATP—900 μM or 30 μM • HEPES (pH=7.0)—50 mM • MgCl2—10 mM • MnCl2—5 mM.
The mixture was applied by adding 5 μL to each well of the plate. Thus, the final concentrations of the 15 μL reaction mixture were as follows: • GCN2—10 nM • unloaded tRNA—0.1 nM • GFP-eIF2α—80 nM • ATP—300 μM or 10 μM • HEPES (1 M, pH=7.0)—50 mM • MgCl2—10 mM • MnCl2—5 mM.
The reaction was allowed to proceed at room temperature for 30 min while shaking at 450 rpm.
The antibody mixture was prepared to obtain the following concentrations: • Na2EDTA·2H2O—40 mM, in TR-FRET Dilution Buffer (Life technologies) • Tb—anti-peIF2a antibodies—4 nM.
The mixture was applied by adding 15 μL to each well. The plate was then incubated at room temperature for 60 min while shaking at 450 rpm and then read using Tecan Spark reader using specific TR-FRET filters.
The analysis of the GFP/Tb fluorescence results was conducted with GraphPad Prism to determine IC50 for each of the example compounds using 4-parameter model: log(inhibitor) vs. response-variable slope. IC50 and K, values were calculated in the usual way. The assay was carried out between 1 and 15 times. The results in the table below are the mean results from replicate assays for the compound in question, where applicable.

[2] = Kinetic solubility in PBS buffer pH 7.4; format: physicochemical; details: aqueous buffer, kinetic from dmso stock; PBS buffer pH 7.4, 90 minutes at room temperature, from 10 mM DMSO stock
Method: The kinetic solubility assay investigates a solubility based on the amount of material which remains in solution after a precipitation process. […] Assay is performed using Multiscreen Vacuum Manifold. A buffer of interest (in standard protocol PBS buffer at pH=7.4 is used) is spiked with stock solution and incubated for 90 minutes at room temperature. After that time solution/suspension is filtrated. The concentration of each compound is determined on the base of prepared calibration curve using UV-VIS spectrophotometry method. The assay is made in triplicate.
Buffer of interest: 0.24 g of KH2PO4, 1.44 g of Na2HPO4, 0.2 g of KCl and 8 g NaCl and dissolve in 1 L distilled H2O; adjust pH to appropriate value (pH 7.4). 190 μl of buffer of interest was dispensed into the wells of a 96 well filter plate, followed by 10 μl of compound (10 mM stock solution in DMSO). The plate was shaken gently at room temperature for 90 minutes at 500 rpm using a BioSan, Plate Shaker-Thermostat, PST-60 HL-4. After 90 minutes, the plate was filtered using a vacuum manifold and vacuum pump. 100 μl of each filtrate and 100 μl acetonitrile was transferred to a 96 well UV-visible light transparent plate and the UV-visible absorption spectrum was measured using a Biotek Synergy 2 multiplate reader from 250-500 nm, interval range 10 nm. The amount of test compound was calculated using a calibration curve prepared by serial dilution of compounds in equivalent amounts of DMSO and acetonitrile.

[3] = read-out: GCN2 IC50 (nM) 300 uM ATP, 300 uM ATP
[4] = read-out: GCN2 Ki (nM) 300 uM ATP, 300 uM ATP

T1 sequence (Q9P2K8 whole entry): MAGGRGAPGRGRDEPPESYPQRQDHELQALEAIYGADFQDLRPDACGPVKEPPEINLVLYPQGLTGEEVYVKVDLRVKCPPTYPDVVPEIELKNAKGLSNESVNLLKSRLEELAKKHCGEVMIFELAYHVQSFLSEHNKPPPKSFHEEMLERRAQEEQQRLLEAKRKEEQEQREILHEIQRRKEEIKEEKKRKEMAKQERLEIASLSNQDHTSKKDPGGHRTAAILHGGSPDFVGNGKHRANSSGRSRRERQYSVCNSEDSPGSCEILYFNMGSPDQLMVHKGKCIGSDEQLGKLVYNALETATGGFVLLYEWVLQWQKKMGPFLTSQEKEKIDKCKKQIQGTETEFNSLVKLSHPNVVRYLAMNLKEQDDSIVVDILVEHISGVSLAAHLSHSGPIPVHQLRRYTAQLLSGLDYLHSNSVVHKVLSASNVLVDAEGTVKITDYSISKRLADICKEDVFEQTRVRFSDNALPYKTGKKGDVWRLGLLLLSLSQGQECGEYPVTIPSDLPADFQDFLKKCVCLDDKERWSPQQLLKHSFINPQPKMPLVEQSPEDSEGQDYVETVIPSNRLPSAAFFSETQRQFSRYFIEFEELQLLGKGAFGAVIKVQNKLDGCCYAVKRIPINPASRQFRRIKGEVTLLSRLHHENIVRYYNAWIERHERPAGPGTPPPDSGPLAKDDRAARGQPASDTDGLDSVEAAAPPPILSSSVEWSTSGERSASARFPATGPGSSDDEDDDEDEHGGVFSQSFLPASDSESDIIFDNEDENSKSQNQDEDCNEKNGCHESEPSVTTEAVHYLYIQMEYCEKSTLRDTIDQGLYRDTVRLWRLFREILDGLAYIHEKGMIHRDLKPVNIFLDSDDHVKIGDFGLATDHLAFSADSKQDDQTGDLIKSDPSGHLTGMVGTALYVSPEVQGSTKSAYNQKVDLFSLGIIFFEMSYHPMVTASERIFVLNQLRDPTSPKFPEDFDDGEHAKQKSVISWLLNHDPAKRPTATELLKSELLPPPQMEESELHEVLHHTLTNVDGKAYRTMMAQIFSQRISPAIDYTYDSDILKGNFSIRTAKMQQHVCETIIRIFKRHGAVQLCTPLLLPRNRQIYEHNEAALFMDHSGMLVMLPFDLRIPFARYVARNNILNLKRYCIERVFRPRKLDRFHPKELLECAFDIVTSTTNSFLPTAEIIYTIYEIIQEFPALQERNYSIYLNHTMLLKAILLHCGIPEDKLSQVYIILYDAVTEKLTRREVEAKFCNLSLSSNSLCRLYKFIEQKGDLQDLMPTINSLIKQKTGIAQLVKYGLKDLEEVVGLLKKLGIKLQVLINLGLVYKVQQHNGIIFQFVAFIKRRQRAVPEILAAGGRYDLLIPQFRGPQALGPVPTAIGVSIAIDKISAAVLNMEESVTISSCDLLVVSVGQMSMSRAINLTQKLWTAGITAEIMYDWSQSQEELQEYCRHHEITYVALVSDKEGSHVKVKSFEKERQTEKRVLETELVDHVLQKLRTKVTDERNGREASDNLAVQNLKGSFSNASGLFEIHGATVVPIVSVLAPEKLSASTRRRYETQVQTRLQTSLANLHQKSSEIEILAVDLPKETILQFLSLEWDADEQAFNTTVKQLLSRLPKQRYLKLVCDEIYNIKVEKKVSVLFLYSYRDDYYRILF

| SMILES | IC50 ([1]; read-out: GCN2 IC50 (nM) 10 uM ATP, 10 uM ATP) [nM] | IC50 [1, 3] [nM] | Ki ([1]; read-out: GCN2 Ki (nM) 10 uM ATP, 10 uM ATP) [nM] | Ki [1, 4] [nM] | solubility kinetic at 90 min [2] [µg/mL] |
| --- | --- | --- | --- | --- | --- |
| COc1ncc(Cl)cc1S(=O)(=O)Nc1nccc(C#Cc2cncc3c2cnn3C)c1F [Example 20, 5-chloro-N-[3-fluoro-4-(2-{1-methyl-1H-pyrazolo[3,4-c]pyridin-4-yl}ethynyl)pyridin-2-yl]-2-methoxypyridine-3-sulfonamide] | 14.5 | 324 | 4.6 | 4.9 | 70.6 |
| COc1ncc(Cl)cc1S(=O)(=O)Nc1nccc(C#Cc2cncc3[nH]ncc23)c1F [Example 21, 5-chloro-N-[3-fluoro-4-(2-{1H-pyrazolo[3,4-c]pyridin-4-yl}ethynyl)pyridin-2-yl]-2-methoxypyridine-3-sulfonamide] |  | 158 |  | 2.4 | 221 |
| COc1ncc(Cl)cc1S(=O)(=O)Nc1nccc(C#Cc2cncc3nn(C)cc23)c1F [Example 22, 5-chloro-N-[3-fluoro-4-(2-{2-methyl-2H-pyrazolo[3,4-c]pyridin-4-yl}ethynyl)pyridin-2-yl]-2-methoxypyridine-3-sulfonamide] |  | 98.6 |  | 1.5 | 229 |
| COc1ncc(Cl)cc1S(=O)(=O)Nc1nccc(C#Cc2cncc3cnn(C)c23)c1F [Example 24, 5-chloro-N-[3-fluoro-4-(2-{1-methyl-1H-pyrazolo[4,3-c]pyridin-7-yl}ethynyl)pyridin-2-yl]-2-methoxypyridine-3-sulfonamide] |  | 169 |  | 2.6 | 80.3 |
| CNc1ncc(C#Cc2ccnc(NS(=O)(=O)c3cc(Cl)cnc3OC)c2F)cn1 [Example 25, 5-chloro-N-(3-fluoro-4-{2-[2-(methylamino)pyrimidin-5-yl]ethynyl}pyridin-2-yl)-2-methoxypyridine-3-sulfonamide] |  | 110 |  | 1.7 | 208 |
| COc1ncc(Cl)cc1S(=O)(=O)Nc1nccc(C#Cc2cnc3cnccn23)c1F [Example 26, 5-chloro-N-[3-fluoro-4-(2-{imidazo[1,2-a]pyrazin-3-yl}ethynyl)pyridin-2-yl]-2-methoxypyridine-3-sulfonamide] |  | 556 |  | 8.5 | 241 |
| COc1ncc(Cl)cc1S(=O)(=O)Nc1nccc(C#Cc2cnc3[nH]ncc3n2)c1F [Example 27, 5-chloro-N-[3-fluoro-4-(2-{1H-pyrazolo[3,4-b]pyrazin-5-yl}ethynyl)pyridin-2-yl]-2-methoxypyridine-3-sulfonamide] |  | 225 |  | 3.4 | 225 |
| COc1ncc(Cl)cc1S(=O)(=O)Nc1nccc(C#Cc2cnc3[nH]c(=O)[nH]c3n2)c1F [Example 28, 5-chloro-N-[3-fluoro-4-(2-{2-oxo-1H,2H,3H-imidazo[4,5-b]pyrazin-5-yl}ethynyl)pyridin-2-yl]-2-methoxypyridine-3-sulfonamide] |  | 174 |  | 2.7 | 231 |
| COc1ncc(Cl)cc1S(=O)(=O)Nc1nccc(C#Cc2cnc3[nH]cnc3c2)c1F [Example 29, 5-chloro-N-[3-fluoro-4-(2-{3H-imidazo[4,5-b]pyridin-6-yl}ethynyl)pyridin-2-yl]-2-methoxypyridine-3-sulfonamide] |  | 654 |  | 10 | 231 |
| COc1ncc(Cl)cc1S(=O)(=O)Nc1nccc(C#Cc2cnc3ccnn3c2)c1F [Example 30, 5-chloro-N-[3-fluoro-4-(2-{pyrazolo[1,5-a]pyrimidin-6-yl}ethynyl)pyridin-2-yl]-2-methoxypyridine-3-sulfonamide] |  | 160 |  | 2.4 | > 245 |
| COc1ncc(Cl)cc1S(=O)(=O)Nc1nccc(C#Cc2cnn3cccnc23)c1F [Example 31, 5-chloro-N-[3-fluoro-4-(2-{pyrazolo[1,5-a]pyrimidin-3-yl}ethynyl)pyridin-2-yl]-2-methoxypyridine-3-sulfonamide] |  | 98.9 |  | 1.5 | > 243 |

Reference: US11945799B2, “4-ethynylpyridine derivatives useful as GCN2 inhibitors” (IP2IPO INNOVATIONS LIMITED, priority 2020, dated 2024)
